The target in assay [1] is T1, R2 LRPL (Thermothelomyces thermophilus, UniProt G2QG31).
T1 construct: gene lcc1; secreted by S. cerevisiae, crude supernatant
Put plainly: endpoint absorbance increase at […] nm. It is filed as biochemical. The settings on record: 250 μM sinapic acid; tartrate pH 4.0; yeast supernatant.

Assay [2] concerns T2, Trametes villosa laccase (TvL).
T2 construct: gene LCC1; crude commercial laccase preparation, Novozymes
Put plainly: absorbance increase at […] nm. Format: biochemical. The settings on record: sodium tartrate pH 4.0; crude commercial enzyme.

The test system is the same in assay [3]. Put plainly: absorbance increase at […] nm. Format: biochemical. The settings on record: sodium tartrate pH 4.0; crude commercial enzyme; assigned by order of preceding sentence and Figure 2A-C.
In assay [4] the test system is T3, Trametes villosa laccase (TvL).
T3 construct: gene LCC1
The settings on record: sodium tartrate pH 4.0; crude commercial enzyme.

In assay [5] the target is T1, R2 LRPL. The assay can be described thus: endpoint absorbance increase at […] nm. The settings on record: 2 mM acetosyringone; tartrate pH 4.0; yeast supernatant. It is filed as biochemical.

Read-outs that look alike come from different tables or passages of the source.

T1 sequence (G2QG31 entry or part of it): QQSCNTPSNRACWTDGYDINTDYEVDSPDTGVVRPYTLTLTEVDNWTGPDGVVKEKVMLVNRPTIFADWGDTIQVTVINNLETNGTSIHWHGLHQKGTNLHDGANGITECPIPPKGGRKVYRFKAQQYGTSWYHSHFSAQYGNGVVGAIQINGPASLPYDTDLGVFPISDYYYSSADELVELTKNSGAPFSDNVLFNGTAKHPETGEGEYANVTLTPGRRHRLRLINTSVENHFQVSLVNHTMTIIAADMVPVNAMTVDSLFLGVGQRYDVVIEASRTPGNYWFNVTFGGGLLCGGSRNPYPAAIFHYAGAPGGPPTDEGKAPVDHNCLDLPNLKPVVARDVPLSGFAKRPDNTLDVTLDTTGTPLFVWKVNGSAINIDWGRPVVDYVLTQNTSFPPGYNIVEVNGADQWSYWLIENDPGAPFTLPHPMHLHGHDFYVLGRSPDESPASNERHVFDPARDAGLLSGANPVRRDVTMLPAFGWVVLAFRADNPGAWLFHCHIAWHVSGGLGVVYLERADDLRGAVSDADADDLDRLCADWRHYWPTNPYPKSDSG

Regarding `COc1cc(/C=C/C(=O)O)cc(OC)c1O` [sinapic acid], the “endpoint absorbance increase at 512 nm” value in assay [1] is “colored responses were linear (absorbance increased with increasing volumes of supernatant) with both laccases”. For the same molecule, the Km in assay [2] came to 85 µM.
On to `COc1cc(C=O)cc(OC)c1O` [syringaldehyde, 3,5-dimethoxy-4-hydroxybenzaldehyde], for which the Km in assay [3] came to 120 µM.
Consider `COc1cc(C(C)=O)cc(OC)c1O` [acetosyringone, 3′,5′-dimethoxy-4′-hydroxyacetophenone], for which, in assay [4], the Km was 93 µM. Moreover, the “endpoint absorbance increase at 520 nm” value in assay [5] was “colored responses were linear (absorbance increased with increasing volumes of supernatant) with both laccases”.

Values taken from article PMC4015961, “New colorimetric screening assays for the directed evolution of fungal laccases to improve the conversion of plant biomass” (BMC Biotechnology, 2013).
